Values quoted from earlier work, collected in PMC6311893, “Computational prediction of plasma protein binding of cyclic peptides from small molecule experimental data using sparse modeling techniques” (BMC Bioinformatics, 2018).
Where two headings read alike, the source gives them in different places.

System: plasma protein
Settings: cited from earlier work
[1] = fraction bound to plasma protein, small molecule dataset, sheet 1-SM, Set Dtr, ref Ingle et al.
[2] = fraction bound to plasma protein, small molecule dataset, sheet 1-SM (Set Dte = test, Dtr = training), ref Ingle et al.
[3] = fraction bound to plasma protein, small molecule dataset, sheet 1-SM, ref Ingle et al.

Compound: Fc1ccc([C@@H]2CCNC[C@H]2COc2ccc3c(c2)OCO3)cc1 [Paroxetine]
- PPB (fb) [1]: 0.94

Compound: Nc1nc2c(ncn2CCC(CO)CO)c(=O)[nH]1 [Penciclovir]
- PPB (fb) [1]: 0.13

Compound: CC1(C)S[C@@H]2[C@H](NC(=O)Cc3ccccc3)C(=O)N2[C@H]1C(=O)O [Penicillin G]
- PPB (fb) [1]: 0.62

Compound: CC(C)=CCN1CCC2(C)c3cc(O)ccc3CC1C2C (stereo not drawn) [Pentazocine]
- PPB (fb) (plasma): 0.61

Compound: CCCC(C)C1(CC)C(=O)NC(=O)NC1=O (stereo not drawn) [Pentobarbital]
- PPB (fb) (plasma): 0.56

Compound: OCCN1CCN(CCCN2c3ccccc3Sc3ccc(Cl)cc32)CC1 [Perphenazine]
- PPB (fb) [1]: 0.92

Compound: CCOc1ccc(NC(C)=O)cc1 [Phenacetin]
- PPB (fb) [1]: 0.41

Compound: c1ccc(C2(N3CCCCC3)CCCCC2)cc1 [Phencyclidine]
- PPB (fb) (plasma): 0.68

Compound: CC(Oc1ccccc1)C(=O)N[C@@H]1C(=O)N2[C@@H]1SC(C)(C)[C@@H]2C(=O)O (stereo partly drawn) [Phenethicillin]
- PPB (fb) [1]: 0.75

Compound: CCC1(c2ccccc2)C(=O)NC(=O)NC1=O [Phenobarbital]
- PPB (fb) (plasma): 0.43

Compound: CC1(C)S[C@@H]2[C@H](NC(=O)COc3ccccc3)C(=O)N2[C@H]1C(=O)O [Phenoxymethylpenicillin]
- PPB (fb) [2]: 0.67

Compound: CC[C@@H]1C(=O)OC[C@@H]1Cc1cncn1C [Pilocarpine]
- PPB (fb) [3]: 0.01

Compound: COc1ccc(-c2nc3ccc(C4=NNC(=O)CC4C)cc3[nH]2)cc1 (stereo not drawn) [Pimobendan]
- PPB (fb) [1]: 0.98

Compound: CC(C)NCC(O)COc1cccc2[nH]ccc12 (stereo not drawn) [Pindolol]
- PPB (fb) [1]: 0.48

Compound: CC(=O)O[C@H]1C[C@@H]2CC[C@@H]3[C@H](CC[C@@]4(C)[C@H]3C[C@H](N3CC[N+](C)(C)CC3)[C@@H]4OC(C)=O)[C@@]2(C)C[C@@H]1N1CC[N+](C)(C)CC1 [Pipecuronium]
- PPB (fb) [2]: 0.02

Compound: CCN1CCN(C(=O)N[C@@H](C(=O)N[C@@H]2C(=O)N3[C@@H]2SC(C)(C)[C@@H]3C(=O)O)c2ccccc2)C(=O)C1=O [Piperacillin]
- PPB (fb) (plasma): 0.4

Compound: CN(C)S(=O)(=O)C1=CC2C(C=C1)Sc1ccccc1N2CCCN1CCC(CCO)CC1 (stereo not drawn) [Pipotiazine]
- PPB (fb) [3]: 0.45

Compound: NS(=O)(=O)c1cc(C(=O)O)cc(N2CCCC2)c1Oc1ccccc1 [Piretanide]
- PPB (fb) [1]: 0.94

Compound: N#CC(CCN1CCC(C(N)=O)(N2CCCCC2)CC1)(c1ccccc1)c1ccccc1 [Piritramide]
- PPB (fb) (plasma): 0.94

Compound: CC1CCCC(C)N1CCCC(O)(c1ccccc1)c1ccccn1 (stereo not drawn) [Pirmenol]
- PPB (fb) [1]: 0.87

Compound: C[C@]12C=CC(=O)C=C1CC[C@@H]1[C@@H]2[C@@H](O)C[C@@]2(C)[C@H]1CC[C@]2(O)C(=O)CO [Prednisolone]
- PPB (fb) [1]: 0.81

Compound: CC(=O)C1CCC2C3CC=C4CC(O)CCC4(C)C3CCC12C (stereo not drawn) [Pregnenolone]
- PPB (fb) [3]: 0.8

Compound: CCCNC(C)C(=O)Nc1ccccc1C (stereo not drawn) [Prilocaine]
- PPB (fb) [1]: 0.39

Compound: CCCN(CCC)S(=O)(=O)c1ccc(C(=O)O)cc1 [Probenecid]
- PPB (fb) [2]: 0.88

Compound: CCN(CC)CCNC(=O)c1ccc(N)cc1 [Procainamide]
- PPB (fb) [1]: 0.16

Compound: CN(C)CCCN1c2ccccc2Sc2ccccc21 [Promazine]
- PPB (fb) [1]: 0.89

Compound: CC(CN1c2ccccc2Sc2ccccc21)N(C)C (stereo not drawn) [Promethazine]
- PPB (fb) [1]: 0.88

Compound: CC(C)c1cccc(C(C)C)c1O [Propofol]
- PPB (fb) (plasma): 0.98

Compound: CCC(=O)O[C@](Cc1ccccc1)(c1ccccc1)[C@H](C)CN(C)C [Propoxyphene]
- PPB (fb) (plasma): 0.75

Compound: CCCc1cc(=O)[nH]c(=S)[nH]1 [Propylthiouracil]
- PPB (fb) [2]: 0.81

Compound: NC(=O)c1cnccn1 [Pyrazinamide]
- PPB (fb) [3]: 0.1

Compound: CCc1nc(N)nc(N)c1-c1ccc(Cl)cc1 [Pyrimethamine]
- PPB (fb) [1]: 0.89

Compound: O=c1c(O)c(-c2ccc(O)c(O)c2)oc2cc(O)cc(O)c12 [Quercetin]
- PPB (fb) [1]: 0.99

Compound: C[C@H](N[C@@H](CCc1ccccc1)C(=O)O)C(=O)N1Cc2ccccc2C[C@H]1C(=O)O [Quinaprilat]
- PPB (fb) [2]: 0.68

Compound: C=C[C@H]1C[N@@]2CC[C@H]1C[C@@H]2[C@@H](O)c1ccnc2ccc(OC)cc12 [Quinidine]
- PPB (fb) [2]: 0.74

Compound: C=C[C@H]1C[N@@]2CC[C@H]1C[C@H]2[C@H](O)c1ccnc2ccc(OC)cc12 [Quinine]
- PPB (fb) [1]: 0.81

Compound: CNC(=C[N+](=O)[O-])NCCSCc1ccc(CN(C)C)o1 [Ranitidine]
- PPB (fb) [2]: 0.1

Compound: Cc1cccc(C)c1NC(=O)NCCCNC(C)C [Recainam]
- PPB (fb) [1]: 0.14

Compound: CCN1CCC[C@H]1CNC(=O)c1c(OC)ccc(Br)c1OC [Remoxipride]
- PPB (fb) [3]: 0.79

Compound: CCOc1cc(CC(=O)N[C@@H](CC(C)C)c2ccccc2N2CCCCC2)ccc1C(=O)O [Repaglinide]
- PPB (fb) [3]: 0.98

Compound: NC(=O)c1ncn([C@@H]2O[C@H](CO)[C@@H](O)[C@H]2O)n1 [Ribavirin]
- PPB (fb) [3]: 0.02

Compound: CO[C@H]1/C=C/O[C@@]2(C)Oc3c(C)c(O)c4c(O)c(c(/C=N/N5CCN(C)CC5)c(O)c4c3C2=O)NC(=O)/C(C)=C\C=C\[C@H](C)[C@H](O)[C@@H](C)[C@@H](O)[C@@H](C)[C@H](OC(C)=O)[C@@H]1C [Rifampin]
- PPB (fb) [3]: 0.77

Compound: CO[C@H]1/C=C/O[C@@]2(C)Oc3c(C)c(O)c4c(O)c(c(/C=N/N5CCN(C6CCCC6)CC5)c(O)c4c3C2=O)NC(=O)/C(C)=C\C=C\[C@H](C)[C@H](O)[C@@H](C)[C@@H](O)[C@@H](C)[C@H](OC(C)=O)[C@@H]1C [Rifapentine]
- PPB (fb) [3]: 0.93

Compound: CC(NCCc1ccc(O)cc1)C(O)c1ccc(O)cc1 (stereo not drawn) [Ritodrine]
- PPB (fb) [3]: 0.33

Compound: CCN(C)C(=O)Oc1cccc([C@H](C)N(C)C)c1 [Rivastigmine]
- PPB (fb) (plasma): 0.4

Compound: CCCN1CCCC[C@H]1C(=O)Nc1c(C)cccc1C [Ropivacaine]
- PPB (fb) [3]: 0.94

Compound: CN(CCOc1ccc(CC2SC(=O)NC2=O)cc1)c1ccccn1 (stereo not drawn) [Rosiglitazone]
- PPB (fb) [3]: 0.99

Compound: CC(C)(C)NC(=O)[C@@H]1C[C@@H]2CCCC[C@@H]2CN1C[C@@H](O)[C@H](Cc1ccccc1)NC(=O)[C@H](CC(N)=O)NC(=O)c1ccc2ccccc2n1 [Saquinavir]
- PPB (fb) [3]: 0.98

Compound: C[C@@H](O)[C@H]1C(=O)N2C(C(=O)O)=C(SCCOC(N)=O)S[C@H]12 [Sch34343]
- PPB (fb) [3]: 0.65

Compound: C#CCN(C)[C@H](C)Cc1ccccc1 [Selegiline]
- PPB (fb) (plasma): 0.9

Compound: CCN(CC)CCNC(=O)c1ccc(NS(C)(=O)=O)cc1 [Sematilide]
- PPB (fb) [3]: 0.04

Compound: CN[C@@H]1[C@@H](O)[C@@H](O[C@@H]2[C@@H](O)[C@H](O[C@H]3OC(CN)=CC[C@H]3N)[C@@H](N)C[C@H]2N)OC[C@]1(C)O [Sisomicin]
- PPB (fb) [3]: 0.85

Compound: N[C@@H]1CN(c2c(F)cc3c(=O)c(C(=O)O)cn([C@@H]4C[C@@H]4F)c3c2Cl)CC12CC2 [Sitafloxacin]
- PPB (fb) [2]: 0.49

Compound: N[C@@H](CC(=O)N1CCn2c(nnc2C(F)(F)F)C1)Cc1cc(F)c(F)cc1F [Sitagliptin]
- PPB (fb) [3]: 0.38

Compound: CC(C)NCC(O)c1ccc(NS(C)(=O)=O)cc1 (stereo not drawn) [Sotalol]
- PPB (fb) [3]: 0.28

Compound: C[C@@H]1CN(c2c(F)c(N)c3c(=O)c(C(=O)O)cn(C4CC4)c3c2F)C[C@H](C)N1 [Sparfloxacin]
- PPB (fb) [3]: 0.45

Compound: [H]/N=C(/N)N[C@H]1[C@H](O)[C@@H](O)[C@H](O[C@@H]2O[C@@H](C)[C@](O)(C=O)[C@H]2O[C@@H]2O[C@@H](CO)[C@H](O)[C@@H](O)[C@@H]2NC)[C@@H](N/C(N)=N\[H])[C@@H]1O [Streptomycin]
- PPB (fb) [3]: 0.37

Compound: CC1(C)S[C@@H]2[C@H](NC(=O)C(c3ccccc3)S(=O)(=O)O)C(=O)N2[C@H]1C(=O)O (stereo partly drawn) [Sulbenicillin]
- PPB (fb) [2]: 0.5

Compound: Nc1ccc(S(=O)(=O)Nc2ncccn2)cc1 [Sulfadiazine]
- PPB (fb) [3]: 0.45

Compound: O=C1C(CC[S+]([O-])c2ccccc2)C(=O)N(c2ccccc2)N1c1ccccc1 (stereo not drawn) [Sulfinpyrazone]
- PPB (fb) [3]: 0.98

Compound: Cc1noc(NS(=O)(=O)c2ccc(N)cc2)c1C [Sulfisoxazole]
- PPB (fb) [3]: 0.92

Compound: CSc1ccc(/C=C2/C(C)=C(CC(=O)O)c3cc(F)ccc32)cc1 [Sulindac sulfide]
- PPB (fb) [3]: 0.94

Compound: CNS(=O)(=O)Cc1ccc2[nH]cc(CCN(C)C)c2c1 [Sumatriptan]
- PPB (fb) [3]: 0.17

Compound: CC(C(=O)O)c1ccc(C(=O)c2cccs2)cc1 (stereo not drawn) [Suprofen]
- PPB (fb) [3]: 0.99

Compound: Nc1c2c(nc3ccccc13)CCCC2 [Tacrine]
- PPB (fb) (plasma): 0.65

Compound: C=CC[C@@H]1/C=C(\C)C[C@H](C)C[C@H](OC)[C@H]2O[C@@](O)(C(=O)C(=O)N3CCCC[C@H]3C(=O)O[C@H](/C(C)=C/[C@@H]3CC[C@@H](O)[C@H](OC)C3)[C@H](C)[C@@H](O)CC1=O)[C@H](C)C[C@@H]2OC [Tacrolimus]
- PPB (fb) [3]: 0.99

Compound: CCOc1ccccc1OCCN[C@H](C)Cc1ccc(OC)c(S(N)(=O)=O)c1 [Tamsulosin]
- PPB (fb) [3]: 0.97

Compound: CCCCCNC(=N)N/N=C/c1c[nH]c2ccc(OC)cc12 [Tegaserod]
- PPB (fb) [3]: 0.98

Compound: CC[C@H]1OC(=O)[C@H](C)C(=O)[C@H](C)[C@@H](O[C@@H]2O[C@H](C)C[C@H](N(C)C)[C@H]2O)[C@](C)(OC)C[C@@H](C)C(=O)[C@H](C)[C@H]2N(CCCCn3cnc(-c4cccnc4)c3)C(=O)O[C@]12C [Telithromycin]
- PPB (fb) [3]: 0.59

Compound: C[C@H](Cn1cnc2c(N)ncnc21)OCP(=O)(O)O [Tenofovir]
- PPB (fb) [2]: 0.07

Compound: CN1C(C(=O)Nc2ccccn2)=C(O)c2sccc2S1(=O)=O [Tenoxicam]
- PPB (fb) [2]: 0.99

Compound: COc1cc2nc(N3CCN(C(=O)C4CCCO4)CC3)nc(N)c2cc1OC (stereo not drawn) [Terazosin]
- PPB (fb) [3]: 0.91

Compound: CC(C)(C)NCC(O)c1cc(O)cc(O)c1 (stereo not drawn) [Terbutaline]
- PPB (fb) [3]: 0.23

Compound: CC(CC(c1ccccc1)c1ccccc1)NC(C)(C)C (stereo not drawn) [Terodiline]
- PPB (fb) [3]: 0.88

Compound: C[C@]12CC[C@H]3[C@@H](CCC4=CC(=O)CC[C@@]43C)[C@@H]1CC[C@@H]2O [Testosterone]
- PPB (fb) (plasma): 0.6

Compound: CCCCCc1cc(O)c2c(c1)OC(C)(C)C1CCC(C)=CC21 (stereo not drawn) [Tetrahydrocannabinol__ D9-]
- PPB (fb) (plasma): 0.96

Compound: COc1ccccc1Oc1c(NS(=O)(=O)c2ccc(C(C)C)cn2)nc(-c2ccnc(-c3nnn[nH]3)c2)nc1OCCO [Tezosentan]
- PPB (fb) [3]: 0.99

Compound: O=C1CCC(N2C(=O)c3ccccc3C2=O)C(=O)N1 (stereo not drawn) [Thalidomide]
- PPB (fb) [3]: 0.57
